Data: patent publication US11814367B2, “Inhibitors of glycogen synthase 1 (GYS1) and methods of use thereof” (Maze Therapeutics, Inc., priority 2021, dated 2023)
pIC50: −log10 of the molar value.

Columns and labels:
[1] = target: hGYS2 enzyme (recombinant hGYS2/GN1 protein) (Homo sapiens (Human), UniProt P54840); experiment: GYS2 coupled enzyme assay (PK/LDH); type: biochemical; conditions: geometric mean of at least 2 assay runs on separate days, read-out: Avg_IC50
Procedure, shortened: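 Recombinant hGYS2/GN1 (200 nM) with 2 mM UDP-glucose, 0.2% rabbit liver glycogen, 2 mM glucose-6-phosphate; UDP coupled via PK/LDH (2 mM PEP, 0.6 mM NADH). Buffer 50 mM Tris pH 7.5, 2 mM MgCl2, 100 mM KCl, 2.5% DMSO. A340 slope over 10 min; IC50 from Hill fit of duplicates.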

[2] = target: hGYS1 enzyme (recombinant hGYS1/GN1 protein) (Homo sapiens (Human), UniProt P13807); experiment: GYS1 coupled enzyme assay (PK/LDH); type: biochemical; conditions: hGYS1/GN1 50 nM, UDP-Glucose 0.8 mM, G6P 1 mM; geometric mean of at least 2 runs
hGYS1 enzyme (recombinant hGYS1/GN1 protein), sequence (P13807 whole entry): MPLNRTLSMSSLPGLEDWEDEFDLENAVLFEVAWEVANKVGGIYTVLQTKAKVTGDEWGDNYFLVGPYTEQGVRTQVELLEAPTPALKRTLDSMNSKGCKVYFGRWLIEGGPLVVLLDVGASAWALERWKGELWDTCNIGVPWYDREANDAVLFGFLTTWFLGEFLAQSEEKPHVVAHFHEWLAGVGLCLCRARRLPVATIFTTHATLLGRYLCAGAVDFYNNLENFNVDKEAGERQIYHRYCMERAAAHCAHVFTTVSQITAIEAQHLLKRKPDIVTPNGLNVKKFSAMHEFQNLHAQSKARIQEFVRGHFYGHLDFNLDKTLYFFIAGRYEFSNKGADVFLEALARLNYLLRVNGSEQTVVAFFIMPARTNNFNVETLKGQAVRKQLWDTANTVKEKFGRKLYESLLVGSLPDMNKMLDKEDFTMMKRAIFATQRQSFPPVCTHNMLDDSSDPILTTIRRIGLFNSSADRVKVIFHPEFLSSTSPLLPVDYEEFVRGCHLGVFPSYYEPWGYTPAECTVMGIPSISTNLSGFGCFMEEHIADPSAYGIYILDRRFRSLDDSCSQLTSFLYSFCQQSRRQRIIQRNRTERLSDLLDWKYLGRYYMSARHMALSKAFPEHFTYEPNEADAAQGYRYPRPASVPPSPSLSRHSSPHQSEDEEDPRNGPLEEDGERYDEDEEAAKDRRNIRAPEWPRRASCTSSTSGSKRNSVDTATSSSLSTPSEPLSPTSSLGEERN
hGYS1 enzyme (recombinant hGYS1/GN1 protein), sequence (P46976 whole entry partner): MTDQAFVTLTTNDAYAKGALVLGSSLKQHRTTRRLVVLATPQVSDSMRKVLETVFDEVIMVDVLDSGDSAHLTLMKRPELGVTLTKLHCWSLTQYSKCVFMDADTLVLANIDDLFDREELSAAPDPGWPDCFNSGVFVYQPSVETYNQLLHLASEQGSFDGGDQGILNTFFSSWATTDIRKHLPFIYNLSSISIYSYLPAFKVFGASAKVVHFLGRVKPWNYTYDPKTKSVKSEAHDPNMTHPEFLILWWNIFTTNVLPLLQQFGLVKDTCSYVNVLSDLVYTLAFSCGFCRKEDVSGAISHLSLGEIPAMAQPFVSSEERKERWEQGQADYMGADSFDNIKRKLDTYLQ

hGYS2 enzyme (recombinant hGYS2/GN1 protein), sequence (P54840 whole entry): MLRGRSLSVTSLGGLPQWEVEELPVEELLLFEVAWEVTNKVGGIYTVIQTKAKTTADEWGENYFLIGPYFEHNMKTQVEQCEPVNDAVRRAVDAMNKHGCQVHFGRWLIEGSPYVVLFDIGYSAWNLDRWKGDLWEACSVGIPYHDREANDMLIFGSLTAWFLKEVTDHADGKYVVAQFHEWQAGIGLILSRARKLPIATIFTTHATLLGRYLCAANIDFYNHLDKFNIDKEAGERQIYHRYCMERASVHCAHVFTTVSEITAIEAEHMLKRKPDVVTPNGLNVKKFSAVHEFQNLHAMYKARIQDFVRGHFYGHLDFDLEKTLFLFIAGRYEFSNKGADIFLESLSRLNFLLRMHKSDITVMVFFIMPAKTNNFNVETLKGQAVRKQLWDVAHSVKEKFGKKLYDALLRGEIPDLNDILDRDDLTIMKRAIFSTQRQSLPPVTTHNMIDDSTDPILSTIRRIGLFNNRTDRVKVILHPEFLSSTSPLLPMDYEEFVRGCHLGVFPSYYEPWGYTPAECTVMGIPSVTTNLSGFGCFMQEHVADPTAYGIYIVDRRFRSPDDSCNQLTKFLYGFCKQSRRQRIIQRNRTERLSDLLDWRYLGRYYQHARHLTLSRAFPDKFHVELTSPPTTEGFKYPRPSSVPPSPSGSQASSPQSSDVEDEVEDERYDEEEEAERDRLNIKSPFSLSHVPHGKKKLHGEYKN
hGYS2 enzyme (recombinant hGYS2/GN1 protein), sequence (P46976 whole entry partner): as the sequence (P46976 whole entry partner) above

Row | pIC50 [1] | pIC50 [2] | Compound
1 | < 4.00 | 6.89 | CC(C)c1ccc([C@@H](NC(=O)[C@@H]2C[C@@H](F)CN2C(=O)CCCc2ccncc2)c2ccccc2)cc1 [Compound 95, (2S,4R)-4-fluoro-N-[(S)-phenyl[4-(propan-2-yl)phenyl]methyl]-1-[4-(pyridin-4-yl)butanoyl]pyrrolidine-2-carboxamide]
2 | < 4.00 | 7.68 | CC(C)c1ccc([C@@H](NC(=O)[C@@H]2C[C@@H](F)CN2C(=O)Cc2ccc3ncccc3c2)c2ccccc2)cc1 [Compound 96, (2S,4R)-4-fluoro-N-[(S)-phenyl[4-(propan-2-yl)phenyl]methyl]-1-[2-(quinolin-6-yl)acetyl]pyrrolidine-2-carboxamide]
3 | < 4.00 | 6.61 | CC(Cc1ccncc1)C(=O)N1C[C@H](F)C[C@H]1C(=O)N[C@@H](c1ccccc1)c1ccc(C(C)C)cc1 (stereo partly drawn) [Compound 98, (2S,4R)-4-fluoro-1-[2-methyl-3-(pyridin-4-yl)propanoyl]-N-[(S)-phenyl[4-(propan-2-yl)phenyl]methyl]pyrrolidine-2-carboxamide]
4 | < 4.00 | 7.19 | Cc1cc(CCC(=O)N2C[C@H](F)C[C@H]2C(=O)N[C@@H](c2ccccc2)c2ccc(C(C)C)cc2)ccn1 [Compound 99, (2S,4R)-4-fluoro-1-[3-(2-methylpyridin-4-yl)propanoyl]-N-[(S)-phenyl[4-(propan-2-yl)phenyl]methyl]pyrrolidine-2-carboxamide]
5 | < 4.00 | 7.14 | Cc1ccc(CCC(=O)N2C[C@H](F)C[C@H]2C(=O)N[C@@H](c2ccccc2)c2ccc(C(C)C)cc2)cn1 [Compound 100, (2S,4R)-4-fluoro-1-[3-(6-methylpyridin-3-yl)propanoyl]-N-[(S)-phenyl[4-(propan-2-yl)phenyl]methyl]pyrrolidine-2-carboxamide]
6 | < 4.00 | 7.27 | Cc1ccc(CCC(=O)N2C[C@H](F)C[C@H]2C(=O)N[C@@H](c2ccccc2)c2ccc(C(C)C)cc2)nc1 [Compound 101, (2S,4R)-4-fluoro-1-[3-(5-methylpyridin-2-yl)propanoyl]-N-[(S)-phenyl[4-(propan-2-yl)phenyl]methyl]pyrrolidine-2-carboxamide]
7 | < 4.00 | 7.24 | Cc1ncccc1CCC(=O)N1C[C@H](F)C[C@H]1C(=O)N[C@@H](c1ccccc1)c1ccc(C(C)C)cc1 [Compound 102, (2S,4R)-4-fluoro-1-[3-(2-methylpyridin-3-yl)propanoyl]-N-[(S)-phenyl[4-(propan-2-yl)phenyl]methyl]pyrrolidine-2-carboxamide]
8 | < 4.00 | 6.79 | Cc1noc(C)c1CCC(=O)N1C[C@H](F)C[C@H]1C(=O)N[C@@H](c1ccccc1)c1ccc(C(C)C)cc1 [Compound 103, (2S,4R)-1-[3-(3,5-dimethyl-1,2-oxazol-4-yl)propanoyl]-4-fluoro-N-[(S)-phenyl[4-(propan-2-yl)phenyl]methyl]pyrrolidine-2-carboxamide]
9 | < 4.00 | 7.21 | CC(C)c1ccc([C@@H](NC(=O)[C@@H]2C[C@@H](F)CN2C(=O)CCc2c[nH]c3ncccc23)c2ccccc2)cc1 [Compound 104, (2S,4R)-4-fluoro-N-[(S)-phenyl[4-(propan-2-yl)phenyl]methyl]-1-(3-{1H-pyrrolo[2,3-b]pyridin-3-yl}propanoyl)pyrrolidine-2-carboxamide]
10 | < 4.00 | 6.60 | Cc1nccn1CCCC(=O)N1C[C@H](F)C[C@H]1C(=O)N[C@@H](c1ccccc1)c1ccc(C(C)C)cc1 [Compound 105, (2S,4R)-4-fluoro-1-[4-(2-methyl-1H-imidazol-1-yl)butanoyl]-N-[(S)-phenyl[4-(propan-2-yl)phenyl]methyl]pyrrolidine-2-carboxamide]
11 | < 4.00 | 6.73 | Cc1cc(C)n(CCC(=O)N2C[C@H](F)C[C@H]2C(=O)N[C@@H](c2ccccc2)c2ccc(C(C)C)cc2)n1 [Compound 106, (2S,4R)-1-[3-(3,5-dimethyl-1H-pyrazol-1-yl)propanoyl]-4-fluoro-N-[(S)-phenyl[4-(propan-2-yl)phenyl]methyl]pyrrolidine-2-carboxamide]
12 | < 4.00 | 7.72 | CC(=O)Nc1ccc(CC(=O)N2C[C@H](F)C[C@H]2C(=O)N[C@@H](c2ccccc2)c2ccc(C(C)C)cc2)cc1 [Compound 107, (2S,4R)-1-[2-(4-acetamidophenyl)acetyl]-4-fluoro-N-[(S)-phenyl[4-(propan-2-yl)phenyl]methyl]pyrrolidine-2-carboxamide]
13 | < 4.00 | 7.11 | CC(C)c1ccc([C@@H](NC(=O)[C@@H]2C[C@@H](F)CN2C(=O)CCC(=O)N2CCCC2)c2ccccc2)cc1 [Compound 108, (2S,4R)-4-fluoro-1-[4-oxo-4-(pyrrolidin-1-yl)butanoyl]-N-[(S)-phenyl[4-(propan-2-yl)phenyl]methyl]pyrrolidine-2-carboxamide]
14 | < 4.00 | 7.39 | CC(C)c1ccc([C@@H](NC(=O)[C@@H]2C[C@@H](F)CN2C(=O)CCc2c[nH]c3ccccc23)c2ccccc2)cc1 [Compound 109, (2S,4R)-4-fluoro-1-[3-(1H-indol-3-yl)propanoyl]-N-[(S)-phenyl[4-(propan-2-yl)phenyl]methyl]pyrrolidine-2-carboxamide]
15 | < 4.00 | 7.48 | Cc1ccc(CCC(=O)N2C[C@H](F)C[C@H]2C(=O)N[C@@H](c2ccccc2)c2ccc(C(C)C)cc2)c(C)n1 [Compound 110, (2S,4R)-1-[3-(2,6-dimethylpyridin-3-yl)propanoyl]-4-fluoro-N-[(S)-phenyl[4-(propan-2-yl)phenyl]methyl]pyrrolidine-2-carboxamide]
16 | < 4.00 | 6.68 | CC(C)c1ccc([C@@H](NC(=O)[C@@H]2C[C@@H](F)CN2C(=O)CCc2ccc(=O)[nH]n2)c2ccccc2)cc1 [Compound 114, (2S,4R)-4-fluoro-1-[3-(6-oxo-1,6-dihydropyridazin-3-yl)propanoyl]-N-[(S)-phenyl[4-(propan-2-yl)phenyl]methyl]pyrrolidine-2-carboxamide]
17 | < 4.00 | 7.31 | CC(C)c1ccc([C@@H](NC(=O)[C@@H]2C[C@@H](F)CN2C(=O)CN2C(=O)CNC2=O)c2ccccc2)cc1 [Compound 117, (2S,4R)-1-[2-(2,5-dioxoimidazolidin-1-yl)acetyl]-4-fluoro-N-[(S)-phenyl[4-(propan-2-yl)phenyl]methyl]pyrrolidine-2-carboxamide]
18 | < 4.00 | 7.70 | CC(C)c1ccc([C@@H](NC(=O)[C@@H]2C[C@@H](F)CN2C(=O)Cc2ccc3ncnn3c2)c2ccccc2)cc1 [Compound 118, (2S,4R)-4-fluoro-N-[(S)-phenyl[4-(propan-2-yl)phenyl]methyl]-1-(2-{[1,2,4]triazolo[1,5-a]pyridin-6-yl}acetyl)pyrrolidine-2-carboxamide]
19 | < 4.00 | 6.96 | CC(C)c1ccc([C@@H](NC(=O)[C@@H]2C[C@@H](F)CN2C(=O)Cc2noc3ccccc23)c2ccccc2)cc1 [Compound 119, (2S,4R)-1-[2-(1,2-benzoxazol-3-yl)acetyl]-4-fluoro-N-[(S)-phenyl[4-(propan-2-yl)phenyl]methyl]pyrrolidine-2-carboxamide]
20 | < 4.00 | 7.82 | CC(C)c1ccc([C@@H](NC(=O)[C@@H]2C[C@@H](F)CN2C(=O)Cc2cnc3ccccn23)c2ccccc2)cc1 [Compound 121]
